{"source": "patent US20140228543A1", "about": "“MODIFIED AND DERIVATIZED ß-GLUCAN COMPOUNDS, COMPOSITIONS, AND METHODS” (Biothera, Inc., priority 2011, published 2014)", "assay_type_in_all_cases": "cell-based", "key": {"[1]": {"tested_on": "human peripheral blood mononuclear cells", "assay": "Oxidative burst (superoxide production by cytochrome c reduction) on immobilized glucan", "settings": "human PBMCs", "procedure": "Dilutions of MMW and BT-1222 were prepared out-of-plate in water. Subsequently, 50 μL of each dilution were added to triplicate wells of Costar® Universal-Bind™ microtiter plates. For immobilizing the glucans on the plate, the plate was irradiated for 5 min in a UV cross-linker, and then incubated at 50° C. until completely dried. After checking for complete dryness of the plate, it was cross-linked again under UV for 5 minutes. The microtiter plates were then blocked with 0.25% bovine serum albumin (BSA) in DPBS for 30 min at room temperature. Each microtiter plate included positive control wells and negative control wells to which only water with no polysaccharide was added at this point.\nThe oxidative burst response was then determined by standard methods by measuring SO production through the reduction of cytochrome c. Peripheral blood mononuclear cells (PBMCs) were resuspended in HBSS/HEPES buffer with 0.25% BSA at a concentration of 4×10^6 cells/mL and maintained at 37° C. until added to the plate. A 100 μL aliquot of 200 μM bovine cytochrome c solution in HBSS/HEPES buffer previously incubated at 37° C. was added to each well. Approximately 4.0×10^5 cells, in a 100 μL volume, were subsequently added to each well of the microtiter plate. The negative assay control consisting of cells and cytochrome c was added in the uncoated negative control wells. As a positive assay control, just before reading the plate, phorbol myristate acetate (PMA) at 100 ng/mL was added as the stimulus to the cells in the uncoated positive control wells to achieve a final concentration of 50 ng/mL. The plate was maintained at 37° C., and optical density (OD) in each well was read at 550 nm every 15 min for 120 min using a spectrophotometer. For each concentration of polysaccharide, the OD change (ΔOD) was calculated from the time of minimum response (1 min) to the time of maximum response (120 mins). The rate of SO production (nmoles of SO/10^6 cells/120 mins) was calculated from the ΔOD value and the extinction coefficient of cytochrome c (21.1×103 M-1 cm-1). […]"}, "human neutrophils [2]": {"tested_on": "human neutrophils", "assay": "iC3b deposition on neutrophils (flow cytometry)", "procedure": "This ability was evaluated by comparing the levels of iC3b complement fragment detected on human neutrophils with the derivative versus parent β-glucan-bound.\nEnriched neutrophils were resuspended at 1×10^6 cells/mL in RPMI 1640 supplemented with 10% serum. The parent or the derivatized glucans at 200, μg/mL hexose concentration were added to neutrophils and incubated in a 37° C., 5% C02 humidified incubator for 2 hr. After incubation, cells were washed twice with FACS buffer (HBSS supplemented with 1% FBS and 0.1% sodium azide) to remove any unbound β-glucan, stained with a neo-epitope specific anti-iC3b Ab and PE-conjugated goat anti-mouse IgG and subsequently analyzed by flow cytometry.\nTable 1 below lists the fold change of mean fluorescence intensity (MFI) values of iC3b staining on neutrophils treated with each of the parent or derivatized glucans over that of PBS control-treated cells."}, "human neutrophils [3]": {"tested_on": "human neutrophils", "assay": "Neutrophil migration (chemotaxis) to serum-treated glucan", "procedure": "This ability was measured by comparing the migratory capacity of human neutrophils to parent medium molecular weight (MMW) yeast β-glucan versus one of its derivatives, BT-1222. […] In contrast, the migration of neutrophils to MMW β-glucan or BT-1222 was 3.1 fold and 2.8 fold over medium alone, respectively.\nHeparinized peripheral blood was obtained from healthy volunteers, and neutrophils were isolated by density gradient centrifugation with Ficoll-Paque followed by 3% […] sedimentation. Residual erythrocytes were removed by hypotonic lysis. Neutrophils were resuspended at 200,000 cells/ml in RPMI with 3% autologous serum (AS). MMW (3.3 mg/mL), BT-1222 (3.3 mg/mL) and PBS control were mixed with AS in 1:1 ratio and placed in a 37° C. water bath for 30 minutes. After incubation, Imprime and benzylamine-Imprime were diluted in RPMI to achieve 100, 50, 25, and 10 μg/ml concentrations with final concentration of serum being 3%. PBS control was diluted in a similar manner. […] The plate was placed in 37° C. incubator for 1 hour, lysed with 10 μl Cell-titer glo and read for luminescence on the M5 plate reader. Fold over media migration (chemotaxis) was calculated by dividing the RLU (relative luminescence units) for the treatment groups over migration to media (chemokinesis)."}, "human neutrophils [4]": {"tested_on": "human neutrophils", "assay": "β-glucan binding on neutrophils (BfD IV staining, flow cytometry)", "procedure": "This ability was evaluated by comparing the levels of neutrophil-bound parent versus the derivatives of β-glucans detected by BfD IV, a monoclonal antibody (MAb) specific for β-1,3/1,6 glucans. […] Table 2 lists the fold change of MFI values of BfD IV staining on neutrophils treated with each of the parent and derivatized glucans over that of PBS control-treated cells.\nEnriched neutrophils were resuspended at 1×10^6 cells/mL in RPMI 1640 supplemented with 10% serum. The parent or the derivatized glucans at 200, μg/mL hexose concentration were added to neutrophils and incubated in a 37° C., 5% CO2 humidified incubator for 2 hr. After incubation, cells were washed twice with FACS buffer (HBSS supplemented with 1% FBS and 0.1% sodium azide) to remove any unbound β-glucan, and subsequently treated with Fc block. Post Fc block step, cells were stained with the BfD IV Ab for 30 min at 4° C. and washed twice with cold FACS buffer. Cells were then incubated with FITC-conjugated F(ab′)2 goat anti-mouse IgM for 30 min at 4° C. and washed once with cold FACS buffer before fixing with 1% paraformaldehyde. Events were collected on a LSRII flow cytometer and analysis was performed using FlowJo software.\nTable 2 summarizes the fold change of MFI values of BfD IV staining on neutrophils treated with each of the parent, or derivatized β-glucans, over that of PBS control-treated cells."}, "[5]": {"settings": "200 μg/mL hexose concentration, 2 hr, 37° C., 10% serum"}}, "data": [{"substance": "Benzyl Amine MMW Yeast Glucan Analog [BT-1222]", "values": [{"measurement": "rate of superoxide production in comparison to MMW", "setting": "[1]; at each concentration tested", "result": "higher"}, {"measurement": "oxidative burst as measured by rate of superoxide production", "setting": "[1]; plate-immobilized glucan, 120 min", "result": "dose dependent oxidative burst"}, {"measurement": "Approximate Fold Increase/Decrease in MFI over Parent Compound (iC3b)", "setting": "human neutrophils [2]; [5]", "result": 3.0, "unit": "fold"}, {"measurement": "MFI(ic3b) compound/MFI(ic3b) PBS", "setting": "human neutrophils [2]; [5]", "result": "5.9 ± 2.2"}, {"measurement": "staining of iC3b on glucan-bound neutrophils compared with MMW-bound neutrophils", "setting": "human neutrophils [2]; FIG. 3 histogram", "result": "higher"}, {"measurement": "migration of neutrophils compared with parent MMW", "setting": "human neutrophils [3]; FIG. 2", "result": "comparable"}, {"measurement": "migration of neutrophils, fold over medium alone", "setting": "human neutrophils [3]; glucan pre-incubated with autologous serum, 1 hour at 37° C.", "result": 2.8, "unit": "fold"}, {"measurement": "Approximate Fold Increase/Decrease in MFI over Parent Compound (BfD IV)", "setting": "human neutrophils [4]; [5]", "result": 3.1, "unit": "fold"}, {"measurement": "MFI(BID IV) compound/MFI(BID IV) PBS", "setting": "human neutrophils [4]; [5]", "result": "13.2 ± 3.6"}, {"measurement": "staining of BfD IV on glucan-bound neutrophils compared with MMW-bound neutrophils", "setting": "human neutrophils [4]; histogram", "result": "higher"}]}]}
